Experiment: Powder particle size by Helos laser particle size analyzer with Quixel disperser
Format: physicochemical
Method: The powders particle size was measured using a Helos laser particle size analyzer equipped with a Quixel disperser (instrument and disperser manufactured and sold by the company Sympatec GmbH of Clausthal-Zellerfeld, Germany), using ultrapure milli-Q water as the dispersing medium. The sample was first dispersed in milli-Q water by adding a few drops of Tween® 80 (polyethylene glycol sorbitan monooleate, sold by Merck) and placed in a sonicating bath for 5 min, then the suspension was added to the dispersing medium loaded into the instrument until an optical density value OD=4-15% is obtained. The measurement (30 s background +30 s measurement) was performed by operating under continuous sonication with the recirculation pump set at 20%.

size of all particles (Crystalline Form I powder of Example 3 (process of the invention), FIG. 9, cumulative curve): lower than 110 μm
size of the largest particles present (Crystalline Form I powder of Example 4 (comparative), FIG. 10): over 150 μm
peak of the sample particles size distribution (Crystalline Form I powder of Example 4 (comparative, no transformation to Form II), FIG. 10): about 70 μm
SMILES: C[C@]12CCC(=O)C=C1[C@@H]1C[C@@H]1[C@H]1[C@@H]3[C@@H]4C[C@@H]4[C@@]4(CCC(=O)O4)[C@@]3(C)CC[C@@H]12 [Drospirenone, 17β-hydroxy-6β, 7β; 15, 16β-dimethylene-3-oxo-17α-pregn-4-ene-21-carboxylic acid γ-lactone]

Reference: US12606591B2, “Process for the preparation of drospirenone as a fine powder through a double change of crystalline form” (INDUSTRIALE CHIMICA S.R.L., priority 2021, dated 2026)
